Test results as given in the kinase profiling compilation of Christmann-Franck et al. (2016).

Legend:
[1] = target: PIM2 (human) (UniProt Q9P1W9); assay: SelectScreen, TR FRET
[2] = target: PIM1 (human) (UniProt P11309); assay: SelectScreen, TR FRET
[3] = target: CHUK (human) (UniProt O15111); assay: KINOMEscan competition binding; conditions: compound 10.0 µM
[4] = target: PIM1 (human) (UniProt P11309); assay: KINOMEscan competition binding; conditions: compound 10.0 µM
[5] = target: PIM3 (human) (UniProt Q86V86); assay: KINOMEscan competition binding; conditions: compound 10.0 µM
[6] = target: MAP2K3 (human) (UniProt P46734); assay: KINOMEscan competition binding; conditions: compound 10.0 µM
Chain of MAP2K3 (human) (P46734 whole entry, looked up): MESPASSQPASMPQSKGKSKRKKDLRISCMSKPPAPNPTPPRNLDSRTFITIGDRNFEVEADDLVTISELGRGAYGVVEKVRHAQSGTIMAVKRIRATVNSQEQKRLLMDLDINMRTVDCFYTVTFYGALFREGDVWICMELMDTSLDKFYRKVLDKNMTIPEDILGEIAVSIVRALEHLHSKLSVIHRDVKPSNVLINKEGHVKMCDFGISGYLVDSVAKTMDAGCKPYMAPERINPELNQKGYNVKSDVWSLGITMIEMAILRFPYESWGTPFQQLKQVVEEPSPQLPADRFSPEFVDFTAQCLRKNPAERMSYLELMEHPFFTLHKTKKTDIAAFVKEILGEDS

[7] = target: TTK (human) (UniProt P33981); assay: KINOMEscan competition binding; conditions: compound 10.0 µM
[8] = target: TNK1 (human) (UniProt Q13470); assay: KINOMEscan competition binding; conditions: compound 10.0 µM
[9] = target: PLK4 (human) (UniProt O00444); assay: KINOMEscan competition binding; conditions: compound 10.0 µM
Chain of PLK4 (human) (O00444 whole entry, looked up): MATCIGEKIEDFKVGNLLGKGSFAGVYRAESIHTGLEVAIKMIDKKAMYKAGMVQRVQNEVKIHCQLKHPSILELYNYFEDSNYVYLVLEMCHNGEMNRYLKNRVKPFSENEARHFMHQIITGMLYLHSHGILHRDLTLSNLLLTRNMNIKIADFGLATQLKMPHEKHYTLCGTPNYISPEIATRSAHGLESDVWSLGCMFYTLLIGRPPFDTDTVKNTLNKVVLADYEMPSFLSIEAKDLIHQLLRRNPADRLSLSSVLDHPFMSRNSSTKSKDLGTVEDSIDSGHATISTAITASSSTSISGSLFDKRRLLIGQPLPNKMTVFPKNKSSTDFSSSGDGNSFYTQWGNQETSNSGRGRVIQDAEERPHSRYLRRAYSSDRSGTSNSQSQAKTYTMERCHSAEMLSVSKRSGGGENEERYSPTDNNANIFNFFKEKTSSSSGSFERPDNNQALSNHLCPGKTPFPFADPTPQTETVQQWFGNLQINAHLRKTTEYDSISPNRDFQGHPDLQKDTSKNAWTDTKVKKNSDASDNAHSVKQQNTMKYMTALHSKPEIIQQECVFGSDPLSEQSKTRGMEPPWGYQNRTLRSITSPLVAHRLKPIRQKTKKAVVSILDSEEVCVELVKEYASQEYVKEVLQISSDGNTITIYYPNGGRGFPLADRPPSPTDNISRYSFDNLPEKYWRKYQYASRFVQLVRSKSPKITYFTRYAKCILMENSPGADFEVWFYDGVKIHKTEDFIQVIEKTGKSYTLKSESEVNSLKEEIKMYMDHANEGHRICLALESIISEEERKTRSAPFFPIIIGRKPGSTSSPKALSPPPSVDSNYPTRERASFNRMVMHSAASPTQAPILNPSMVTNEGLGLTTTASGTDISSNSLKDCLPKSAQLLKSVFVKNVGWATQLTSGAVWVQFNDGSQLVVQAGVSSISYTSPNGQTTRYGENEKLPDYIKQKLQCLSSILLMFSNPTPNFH

[10] = target: GAK (human) (UniProt O14976); assay: KINOMEscan competition binding; conditions: compound 10.0 µM
[11] = target: MAPK7 (human) (UniProt Q13164); assay: KINOMEscan competition binding; conditions: compound 10.0 µM
[12] = target: DCLK1 (human) (UniProt O15075); assay: KINOMEscan competition binding; conditions: compound 10.0 µM
[13] = target: RIOK2 (human) (UniProt Q9BVS4); assay: KINOMEscan competition binding; conditions: compound 10.0 µM
[14] = target: STK33 (human) (UniProt Q9BYT3); assay: KINOMEscan competition binding; conditions: compound 10.0 µM
Chain of STK33 (human) (Q9BYT3 whole entry, looked up): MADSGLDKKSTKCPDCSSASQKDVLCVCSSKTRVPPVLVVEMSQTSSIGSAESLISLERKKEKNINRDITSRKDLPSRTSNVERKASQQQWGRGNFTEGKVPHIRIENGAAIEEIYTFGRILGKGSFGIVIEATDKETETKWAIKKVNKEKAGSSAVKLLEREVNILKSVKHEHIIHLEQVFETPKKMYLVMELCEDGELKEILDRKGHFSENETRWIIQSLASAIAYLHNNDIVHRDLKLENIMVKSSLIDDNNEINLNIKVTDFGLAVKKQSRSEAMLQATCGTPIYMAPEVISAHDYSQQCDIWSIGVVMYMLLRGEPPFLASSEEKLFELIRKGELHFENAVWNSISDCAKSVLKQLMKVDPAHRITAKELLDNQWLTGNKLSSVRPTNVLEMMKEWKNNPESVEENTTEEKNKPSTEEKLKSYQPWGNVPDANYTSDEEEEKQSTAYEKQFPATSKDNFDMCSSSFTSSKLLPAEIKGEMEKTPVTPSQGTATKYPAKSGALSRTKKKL

[15] = target: MYLK (human) (UniProt Q15746); assay: KINOMEscan competition binding; conditions: compound 10.0 µM
[16] = target: PLK3 (human) (UniProt Q9H4B4); assay: KINOMEscan competition binding; conditions: compound 10.0 µM
Chain of PLK3 (human) (Q9H4B4 whole entry, looked up): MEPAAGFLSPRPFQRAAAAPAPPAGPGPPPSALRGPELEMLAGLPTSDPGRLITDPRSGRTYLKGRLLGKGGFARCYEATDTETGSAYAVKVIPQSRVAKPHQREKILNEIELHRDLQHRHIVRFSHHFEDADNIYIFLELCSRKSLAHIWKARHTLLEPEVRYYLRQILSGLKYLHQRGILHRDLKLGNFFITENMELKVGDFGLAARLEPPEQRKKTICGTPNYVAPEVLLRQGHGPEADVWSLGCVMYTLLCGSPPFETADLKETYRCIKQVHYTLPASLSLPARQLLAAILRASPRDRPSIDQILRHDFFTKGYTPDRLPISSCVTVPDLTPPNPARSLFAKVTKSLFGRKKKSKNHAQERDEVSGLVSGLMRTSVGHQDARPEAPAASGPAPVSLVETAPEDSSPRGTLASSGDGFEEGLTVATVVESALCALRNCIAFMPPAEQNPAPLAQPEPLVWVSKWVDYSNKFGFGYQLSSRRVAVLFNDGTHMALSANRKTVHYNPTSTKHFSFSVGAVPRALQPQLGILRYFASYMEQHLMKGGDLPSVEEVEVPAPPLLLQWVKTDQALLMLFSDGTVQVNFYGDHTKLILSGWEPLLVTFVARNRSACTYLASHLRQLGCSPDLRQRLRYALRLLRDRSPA

[17] = target: STK17A (human) (UniProt Q9UEE5); assay: KINOMEscan competition binding; conditions: compound 10.0 µM
Chain of STK17A (human) (Q9UEE5 whole entry, looked up): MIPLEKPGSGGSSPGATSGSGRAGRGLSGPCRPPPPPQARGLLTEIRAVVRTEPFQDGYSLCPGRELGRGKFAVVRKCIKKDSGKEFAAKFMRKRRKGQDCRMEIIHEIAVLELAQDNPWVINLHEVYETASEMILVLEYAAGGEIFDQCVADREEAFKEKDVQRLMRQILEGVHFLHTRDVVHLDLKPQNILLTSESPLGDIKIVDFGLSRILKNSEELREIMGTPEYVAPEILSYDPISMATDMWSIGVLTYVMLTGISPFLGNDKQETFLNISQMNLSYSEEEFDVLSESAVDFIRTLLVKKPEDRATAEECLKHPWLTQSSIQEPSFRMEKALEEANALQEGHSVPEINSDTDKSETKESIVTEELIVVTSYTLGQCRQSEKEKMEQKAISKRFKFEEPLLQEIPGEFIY

[18] = target: DCLK2 (human) (UniProt Q8N568); assay: KINOMEscan competition binding; conditions: compound 10.0 µM
[19] = target: PLK1 (human) (UniProt P53350); assay: KINOMEscan competition binding; conditions: compound 10.0 µM
Chain of PLK1 (human) (P53350 whole entry, looked up): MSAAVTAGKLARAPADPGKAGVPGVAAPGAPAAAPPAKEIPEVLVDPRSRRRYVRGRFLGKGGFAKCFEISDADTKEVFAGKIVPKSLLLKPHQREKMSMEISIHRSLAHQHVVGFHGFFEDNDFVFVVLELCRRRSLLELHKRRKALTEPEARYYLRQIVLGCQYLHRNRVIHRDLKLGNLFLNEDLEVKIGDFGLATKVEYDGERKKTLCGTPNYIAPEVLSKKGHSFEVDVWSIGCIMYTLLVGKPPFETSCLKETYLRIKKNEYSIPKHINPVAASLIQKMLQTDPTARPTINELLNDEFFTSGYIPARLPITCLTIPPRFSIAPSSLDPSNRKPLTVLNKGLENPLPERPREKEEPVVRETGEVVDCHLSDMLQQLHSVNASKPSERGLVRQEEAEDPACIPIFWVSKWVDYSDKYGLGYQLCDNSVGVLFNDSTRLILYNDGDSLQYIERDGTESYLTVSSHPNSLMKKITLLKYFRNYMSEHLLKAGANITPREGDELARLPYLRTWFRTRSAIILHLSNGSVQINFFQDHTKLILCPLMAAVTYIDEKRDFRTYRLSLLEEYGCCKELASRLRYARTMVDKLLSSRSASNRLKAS

[20] = target: CAMKK2 (human) (UniProt Q96RR4); assay: KINOMEscan competition binding; conditions: compound 10.0 µM
[21] = target: STK17B (human) (UniProt O94768); assay: KINOMEscan competition binding; conditions: compound 10.0 µM
Chain of STK17B (human) (O94768 whole entry, looked up): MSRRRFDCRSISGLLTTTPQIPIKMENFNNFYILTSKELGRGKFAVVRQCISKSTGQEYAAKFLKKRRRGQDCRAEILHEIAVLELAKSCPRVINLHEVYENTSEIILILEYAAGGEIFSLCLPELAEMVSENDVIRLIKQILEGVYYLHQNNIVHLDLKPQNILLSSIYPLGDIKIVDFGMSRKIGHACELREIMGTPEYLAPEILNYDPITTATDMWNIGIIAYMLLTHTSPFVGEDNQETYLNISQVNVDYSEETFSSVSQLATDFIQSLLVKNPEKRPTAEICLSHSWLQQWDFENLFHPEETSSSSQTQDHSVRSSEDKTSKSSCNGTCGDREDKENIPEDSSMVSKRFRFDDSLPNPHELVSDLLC

[22] = target: FLT3 (human) (UniProt P36888); assay: KINOMEscan competition binding; conditions: compound 10.0 µM
[23] = target: PTK2 (human) (UniProt Q05397); assay: KINOMEscan competition binding; conditions: compound 10.0 µM
[24] = target: PIM2 (human) (UniProt Q9P1W9); assay: KINOMEscan competition binding; conditions: compound 10.0 µM
[25] = target: GSK3A (human) (UniProt P49840); assay: KINOMEscan competition binding; conditions: compound 10.0 µM
[26] = target: DAPK2 (human) (UniProt Q9UIK4); assay: KINOMEscan competition binding; conditions: compound 10.0 µM
[27] = target: CLK4 (human) (UniProt Q9HAZ1); assay: KINOMEscan competition binding; conditions: compound 10.0 µM
[28] = target: ACVR2B (human) (UniProt Q13705); assay: KINOMEscan competition binding; conditions: compound 10.0 µM
[29] = target: CDK16 (human) (UniProt Q00536); assay: KINOMEscan competition binding; conditions: compound 10.0 µM
[30] = target: TGFBR2 (human) (UniProt P37173); assay: KINOMEscan competition binding; conditions: compound 10.0 µM
[31] = target: MAPK15 (human) (UniProt Q8TD08); assay: KINOMEscan competition binding; conditions: compound 10.0 µM
[32] = target: HIPK1 (human) (UniProt Q86Z02); assay: KINOMEscan competition binding; conditions: compound 10.0 µM
[33] = target: TAOK1 (human) (UniProt Q7L7X3); assay: KINOMEscan competition binding; conditions: compound 10.0 µM
[34] = target: CLK1 (human) (UniProt P49759); assay: KINOMEscan competition binding; conditions: compound 10.0 µM

Chain of PIM2 (human) (Q9P1W9 whole entry, looked up): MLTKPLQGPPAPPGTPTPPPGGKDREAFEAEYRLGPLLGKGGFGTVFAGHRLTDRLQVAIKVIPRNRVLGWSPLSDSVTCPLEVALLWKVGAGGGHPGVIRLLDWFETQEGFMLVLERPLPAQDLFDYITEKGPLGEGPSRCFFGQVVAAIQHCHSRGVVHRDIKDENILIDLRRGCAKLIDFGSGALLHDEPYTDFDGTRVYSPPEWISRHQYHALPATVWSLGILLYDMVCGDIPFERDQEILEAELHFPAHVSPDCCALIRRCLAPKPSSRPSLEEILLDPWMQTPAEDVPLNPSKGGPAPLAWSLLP
Chain of PIM1 (human) (P11309 whole entry, looked up): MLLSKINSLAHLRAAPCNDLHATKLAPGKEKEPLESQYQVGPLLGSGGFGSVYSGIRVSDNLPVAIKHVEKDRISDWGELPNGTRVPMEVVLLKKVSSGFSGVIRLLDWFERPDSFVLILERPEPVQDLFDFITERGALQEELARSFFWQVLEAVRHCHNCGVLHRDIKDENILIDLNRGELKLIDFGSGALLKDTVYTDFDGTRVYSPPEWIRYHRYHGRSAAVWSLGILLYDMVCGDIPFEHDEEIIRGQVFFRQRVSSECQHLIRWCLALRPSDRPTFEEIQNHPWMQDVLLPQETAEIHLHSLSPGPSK

Which results are given for `CCN1CCN(Cc2cc(NC(=O)c3cccc4cc(-c5ccc(/C=C6\SC(=N)NC6=O)o5)ccc34)cc(C(F)(F)F)c2)CC1`?
IC50 [1]: 814 nM; IC50 [2]: 774 nM

How did the kinase still bound, per cent of control [3] turn out when `NS(=O)(=O)c1ccc(-c2ccc(/C=C3\NC(=S)NC3=O)o2)cc1` was run?
Its kinase still bound, per cent of control is 32%.

With `O=C1NC(=S)S/C1=C\c1ccc(-c2csc3ccccc23)o1` as the compound, how does the IC50 [1] read?
Its IC50 is 375 nM.

And the IC50 [2]?
The IC50 was 722 nM.

With `N=C1NC(=O)/C(=C/c2ccc(-c3cccc4ccccc34)o2)S1` as the compound, how does the IC50 [1] read?
Its IC50 is 1200 nM.

And the IC50 [2]?
The IC50 was 2170 nM.

`CN1C(=N)NC(=O)/C1=C/c1ccc(-c2ccc(S(N)(=O)=O)cc2)o1` was tested. Which kinase still bound, per cent of control [4] did it give?
The kinase still bound, per cent of control was 21%.

What about the kinase still bound, per cent of control [5] of the same compound?
The kinase still bound, per cent of control was 7.4%.

What about the kinase still bound, per cent of control [6] of the same compound?
Its kinase still bound, per cent of control is 11%.

Which results are given for `COc1cc(C(=O)NC2CCC(O)CC2)ccc1Nc1ncc2c(n1)N(C1CCCC1)[C@@H]1CCC[C@@H]1C(=O)N2C` (some centres undefined)?
kinase still bound, per cent of control [7]: 32%; kinase still bound, per cent of control [8]: 14%; kinase still bound, per cent of control [9]: 4.3%; kinase still bound, per cent of control [10]: 28%; kinase still bound, per cent of control [11]: 14%; kinase still bound, per cent of control [12]: 8.2%; kinase still bound, per cent of control [13]: 0.5%; kinase still bound, per cent of control [14]: 34%; kinase still bound, per cent of control [15]: 1.7%; kinase still bound, per cent of control [16]: 0.9%; kinase still bound, per cent of control [17]: 0%; kinase still bound, per cent of control [6]: 0.3%; kinase still bound, per cent of control [18]: 17%; kinase still bound, per cent of control [19]: 0%; kinase still bound, per cent of control [20]: 27%; kinase still bound, per cent of control [21]: 0%

How did the kinase still bound, per cent of control [7] turn out when `CCOc1cc(N2CCC(O)CC2)ccc1Nc1ncc2c(n1)N(C1CCCC1)CCC(=O)N2C` was run?
Its kinase still bound, per cent of control is 3.2%.

What about the kinase still bound, per cent of control [9] of the same compound?
Its kinase still bound, per cent of control is 27%.

What about the kinase still bound, per cent of control [10] of the same compound?
The kinase still bound, per cent of control was 2%.

What about the kinase still bound, per cent of control [22] of the same compound?
The kinase still bound, per cent of control was 0%.

What about the kinase still bound, per cent of control [14] of the same compound?
The kinase still bound, per cent of control was 32%.

And the kinase still bound, per cent of control [16]?
Its kinase still bound, per cent of control is 15%.

And the kinase still bound, per cent of control [19]?
The kinase still bound, per cent of control was 4.3%.

What about the kinase still bound, per cent of control [23] of the same compound?
The kinase still bound, per cent of control was 24%.

`CN1C(=N)NC(=O)/C1=C/c1ccc(-c2cncc3ccccc23)o1` was tested. Which IC50 [1] did it give?
Its IC50 is 3060 nM.

What about the IC50 [2] of the same compound?
The IC50 was 3560 nM.

How did the IC50 [1] turn out when `N=C1NC(=O)/C(=C/c2ccc(-c3ccc(Cl)cc3)o2)S1` was run?
The IC50 was 7830 nM.

And the IC50 [2]?
Its IC50 is 895 nM.

What about the kinase still bound, per cent of control [24] of the same compound?
The kinase still bound, per cent of control was 1.4%.

And the kinase still bound, per cent of control [25]?
The kinase still bound, per cent of control was 7.8%.

What about the kinase still bound, per cent of control [26] of the same compound?
The kinase still bound, per cent of control was 33%.

What about the kinase still bound, per cent of control [27] of the same compound?
The kinase still bound, per cent of control was 30%.

And the kinase still bound, per cent of control [28]?
The kinase still bound, per cent of control was 25%.

What about the kinase still bound, per cent of control [17] of the same compound?
The kinase still bound, per cent of control was 1.8%.

And the kinase still bound, per cent of control [4]?
The kinase still bound, per cent of control was 9.2%.

What about the kinase still bound, per cent of control [29] of the same compound?
Its kinase still bound, per cent of control is 14%.

And the kinase still bound, per cent of control [5]?
Its kinase still bound, per cent of control is 3.9%.

What about the kinase still bound, per cent of control [30] of the same compound?
Its kinase still bound, per cent of control is 10%.

And the kinase still bound, per cent of control [6]?
Its kinase still bound, per cent of control is 5.6%.

And the kinase still bound, per cent of control [31]?
The kinase still bound, per cent of control was 1.4%.

What about the kinase still bound, per cent of control [32] of the same compound?
The kinase still bound, per cent of control was 0.2%.

And the kinase still bound, per cent of control [33]?
The kinase still bound, per cent of control was 11%.

What about the kinase still bound, per cent of control [21] of the same compound?
Its kinase still bound, per cent of control is 2.1%.

And the kinase still bound, per cent of control [34]?
The kinase still bound, per cent of control was 34%.
